Assay results reported in ChEMBL document CHEMBL1201862, “PubChem BioAssay data set” (2004).
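Values below derive from 48-hour exposures of cells grown in 96-well plates, with endpoints linearly interpolated between the two concentrations bracketing the appropriate inhibition level. GI50 is the concentration that inhibits growth by half.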 The source made the active and inactive calls. No stated cut-off is given here; in the data, active = GI50 up to about 1.1 µM and inactive = higher.

Experiments:
Test in all cases: NCI anticancer screen, dose series, 48 h
NCI/ADR-RES = system: NCI/ADR-RES
A498 = system: A498
NCI-H522 = system: NCI-H522
EKVX = system: EKVX
NCI-H226 = system: NCI-H226
SF-539 = system: SF-539
U-251 = system: U-251
DU-145 = system: DU-145
MDA-MB-231 = system: MDA-MB-231
OVCAR-5 = system: OVCAR-5
HOP-92 = system: HOP-92
LOX IMVI = system: LOX IMVI
T47D = system: T47D
SW-620 = system: SW-620
MDA-MB-435 = system: MDA-MB-435
PC-3 = system: PC-3
SNB-75 = system: SNB-75
K562 = system: K562
SK-MEL-5 = system: SK-MEL-5
CCRF-CEM = system: CCRF-CEM
COLO 205 = system: COLO 205
OVCAR-3 = system: OVCAR-3
HCT-15 = system: HCT-15
A549 = system: A549
UACC-62 = system: UACC-62
SF-268 = system: SF-268
Malme-3M = system: Malme-3M
NCI-H23 = system: NCI-H23
786-0 = system: 786-0
TK-10 = system: TK-10
SK-MEL-28 = system: SK-MEL-28
OVCAR-8 = system: OVCAR-8
MCF7 = system: MCF7
M14 = system: M14
CAKI-1 = system: CAKI-1
OVCAR-4 = system: OVCAR-4
SK-MEL-2 = system: SK-MEL-2
SN12C = system: SN12C
HCT-116 = system: HCT-116
KM12 = system: KM12
IGROV-1 = system: IGROV-1
SK-OV-3 = system: SK-OV-3
HT-29 = system: HT-29
UACC-257 = system: UACC-257
SF-295 = system: SF-295
Hs-578T = system: Hs-578T
HL-60 = system: HL-60
NCI-H460 = system: NCI-H460
HOP-62 = system: HOP-62
MOLT-4 = system: MOLT-4
HCC 2998 = system: HCC 2998
ACHN = system: ACHN
RPMI-8226 = system: RPMI-8226
UO-31 = system: UO-31
SNB-19 = system: SNB-19
SR = system: SR
RXF 393 = system: RXF 393

Structure (SMILES): COc1ccc(NC(C)=O)cc1C1CCC(=O)N1 (configuration not stated)
- GI50 (NCI/ADR-RES): > 100 µM (inactive)
- GI50 (A498): > 100 µM (inactive)
- GI50 (NCI-H522): > 100 µM (inactive)
- GI50 (EKVX): > 100 µM (inactive)
- GI50 (NCI-H226): > 100 µM (inactive)
- GI50 (SF-539): > 100 µM (inactive)
- GI50 (U-251): > 100 µM (inactive)
- GI50 (DU-145): > 100 µM (inactive)
- GI50 (MDA-MB-231): > 100 µM (inactive)
- GI50 (OVCAR-5): > 100 µM (inactive)
- GI50 (HOP-92): > 100 µM (inactive)
- GI50 (LOX IMVI): > 100 µM (inactive)
- GI50 (T47D): > 100 µM (inactive)
- GI50 (SW-620): > 100 µM (inactive)
- GI50 (MDA-MB-435): > 100 µM (inactive)
- GI50 (PC-3): > 100 µM (inactive)
- GI50 (SNB-75): > 100 µM (inactive)
- GI50 (K562): > 100 µM (inactive)
- GI50 (SK-MEL-5): > 100 µM (inactive)
- GI50 (CCRF-CEM): > 100 µM (inactive)
- GI50 (COLO 205): > 100 µM (inactive)
- GI50 (OVCAR-3): > 100 µM (inactive)
- GI50 (HCT-15): > 100 µM
- GI50 (A549): > 100 µM (inactive)
- GI50 (UACC-62): > 100 µM (inactive)
- GI50 (SF-268): > 100 µM (inactive)
- GI50 (Malme-3M): > 100 µM (inactive)
- GI50 (NCI-H23): > 100 µM (inactive)
- GI50 (786-0): > 100 µM (inactive)
- GI50 (TK-10): > 100 µM (inactive)
- GI50 (SK-MEL-28): > 100 µM (inactive)
- GI50 (OVCAR-8): > 100 µM (inactive)
- GI50 (MCF7): > 100 µM (inactive)
- GI50 (M14): > 100 µM (inactive)
- GI50 (CAKI-1): > 100 µM (inactive)
- GI50 (OVCAR-4): > 100 µM (inactive)
- GI50 (SK-MEL-2): > 100 µM (inactive)
- GI50 (SN12C): > 100 µM (inactive)
- GI50 (HCT-116): > 100 µM (inactive)
- GI50 (KM12): > 100 µM (inactive)
- GI50 (IGROV-1): > 100 µM (inactive)
- GI50 (SK-OV-3): > 100 µM (inactive)
- GI50 (HT-29): > 100 µM (inactive)
- GI50 (UACC-257): > 100 µM (inactive)
- GI50 (SF-295): > 100 µM (inactive)
- GI50 (Hs-578T): > 100 µM (inactive)
- GI50 (HL-60): > 100 µM (inactive)
- GI50 (NCI-H460): > 100 µM (inactive)
- GI50 (HOP-62): > 100 µM (inactive)
- GI50 (MOLT-4): > 100 µM (inactive)
- GI50 (HCC 2998): > 100 µM (inactive)
- GI50 (ACHN): > 100 µM (inactive)
- GI50 (RPMI-8226): > 100 µM (inactive)
- GI50 (UO-31): > 100 µM (inactive)
- GI50 (SNB-19): > 100 µM (inactive)

Structure (SMILES): COc1cc([C@@H]2c3cc4c(cc3[C@@H](Nc3ccc(C(=O)N[C@H]5CCc6cc(OC)c(OC)c(OC)c6-c6ccc(SC)c(=O)cc65)cc3)[C@H]3COC(=O)[C@H]23)OCO4)cc(OC)c1O
- GI50 (NCI/ADR-RES): 0.493 µM (active)
- GI50 (A498): 0.437 µM (active)
- GI50 (NCI-H522): < 0.01 µM (active)
- GI50 (NCI-H226): < 0.01 µM (active)
- GI50 (SF-539): < 0.01 µM (active)
- GI50 (U-251): < 0.01 µM (active)
- GI50 (OVCAR-5): 43.1 µM (inactive)
- GI50 (HOP-92): 0.042 µM (active)
- GI50 (LOX IMVI): < 0.01 µM (active)
- GI50 (SW-620): < 0.01 µM (active)
- GI50 (MDA-MB-435): < 0.01 µM (active)
- GI50 (K562): < 0.01 µM (active)
- GI50 (CCRF-CEM): < 0.01 µM (active)
- GI50 (COLO 205): < 0.01 µM (active)
- GI50 (SR): < 0.01 µM (active)
- GI50 (HCT-15): 0.428 µM
- GI50 (A549): < 0.01 µM (active)
- GI50 (UACC-62): < 0.01 µM (active)
- GI50 (SF-268): 11.7 µM (inactive)
- GI50 (Malme-3M): 0.322 µM (active)
- GI50 (NCI-H23): < 0.01 µM (active)
- GI50 (786-0): < 0.01 µM (active)
- GI50 (TK-10): 15.2 µM (inactive)
- GI50 (SK-MEL-28): 13 µM (inactive)
- GI50 (OVCAR-8): < 0.01 µM (active)
- GI50 (MCF7): < 0.01 µM (active)
- GI50 (M14): < 0.01 µM (active)
- GI50 (CAKI-1): 0.132 µM (active)
- GI50 (SK-MEL-2): < 0.01 µM (active)
- GI50 (SN12C): < 0.01 µM (active)
- GI50 (HCT-116): < 0.01 µM (active)
- GI50 (HT-29): < 0.01 µM (active)
- GI50 (UACC-257): < 0.01 µM (active)
- GI50 (SF-295): < 0.01 µM (active)
- GI50 (NCI-H460): < 0.01 µM (active)
- GI50 (MOLT-4): < 0.01 µM (active)
- GI50 (ACHN): 0.0598 µM (active)
- GI50 (RPMI-8226): < 0.01 µM (active)
- GI50 (UO-31): 0.698 µM (active)

Structure (SMILES): Cc1ccc(C(=O)N/N=C(\N=N\c2ccccc2)c2ccc(N(CCC#N)CCC#N)cc2C)cc1
- GI50 (NCI/ADR-RES): > 100 µM (inactive)
- GI50 (A498): > 100 µM (inactive)
- GI50 (NCI-H522): 19.4 µM (inactive)
- GI50 (EKVX): 74.6 µM (inactive)
- GI50 (NCI-H226): 54.8 µM (inactive)
- GI50 (SF-539): 18.3 µM (inactive)
- GI50 (U-251): 92.5 µM (inactive)
- GI50 (DU-145): > 100 µM (inactive)
- GI50 (MDA-MB-231): > 100 µM (inactive)
- GI50 (OVCAR-5): > 100 µM (inactive)
- GI50 (HOP-92): > 100 µM (inactive)
- GI50 (LOX IMVI): 99.1 µM (inactive)
- GI50 (T47D): > 100 µM (inactive)
- GI50 (SW-620): > 100 µM (inactive)
- GI50 (MDA-MB-435): 45.6 µM (inactive)
- GI50 (PC-3): 67.9 µM (inactive)
- GI50 (SNB-75): 34 µM (inactive)
- GI50 (K562): > 100 µM (inactive)
- GI50 (SK-MEL-5): 31.8 µM (inactive)
- GI50 (CCRF-CEM): > 100 µM (inactive)
- GI50 (COLO 205): > 100 µM (inactive)
- GI50 (SR): > 100 µM (inactive)
- GI50 (OVCAR-3): 39.2 µM (inactive)
- GI50 (HCT-15): > 100 µM
- GI50 (A549): > 100 µM (inactive)
- GI50 (UACC-62): 38.8 µM (inactive)
- GI50 (SF-268): 24.2 µM (inactive)
- GI50 (NCI-H23): 85.7 µM (inactive)
- GI50 (TK-10): 51.1 µM (inactive)
- GI50 (SK-MEL-28): 13 µM (inactive)
- GI50 (RXF 393): 38.9 µM (inactive)
- GI50 (OVCAR-8): 38 µM (inactive)
- GI50 (MCF7): 53.5 µM (inactive)
- GI50 (M14): > 100 µM (inactive)
- GI50 (CAKI-1): 64.6 µM (inactive)
- GI50 (OVCAR-4): 65.5 µM (inactive)
- GI50 (SK-MEL-2): 69.8 µM (inactive)
- GI50 (KM12): > 100 µM (inactive)
- GI50 (IGROV-1): > 100 µM (inactive)
- GI50 (SK-OV-3): 74 µM (inactive)
- GI50 (HT-29): 35.1 µM (inactive)
- GI50 (UACC-257): 82.4 µM (inactive)
- GI50 (SF-295): 86.5 µM (inactive)
- GI50 (Hs-578T): 28.2 µM (inactive)
- GI50 (HL-60): > 100 µM (inactive)
- GI50 (NCI-H460): > 100 µM (inactive)
- GI50 (HOP-62): 23.1 µM (inactive)
- GI50 (MOLT-4): > 100 µM (inactive)
- GI50 (HCC 2998): > 100 µM (inactive)
- GI50 (ACHN): > 100 µM (inactive)
- GI50 (RPMI-8226): > 100 µM (inactive)
- GI50 (UO-31): > 100 µM (inactive)
- GI50 (SNB-19): 58.3 µM (inactive)
